According to PubChem BioAssay (NCI):
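Growth conditions: 96-well plates. Treatment: test compound, 48 hours, 5 concentrations. Analysis: linear interpolation between bracketing concentrations; unreached endpoints set to highest concentration. Here, GI50 denotes the concentration required for 50% inhibition of growth. The concentration for full growth arrest is given as TGI.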

How the values were obtained:
Test in all cases: NCI tumour cell line growth inhibition, 48 h
UACC-257 melanoma = tested on: UACC-257 melanoma
PC-3 prostate = tested on: PC-3 prostate
A498 renal = tested on: A498 renal
RXF 393 renal = tested on: RXF 393 renal
IGROV1 ovarian = tested on: IGROV1 ovarian
SF-295 CNS = tested on: SF-295 CNS
HCT-15 colon = tested on: HCT-15 colon
TK-10 renal = tested on: TK-10 renal
DU-145 prostate = tested on: DU-145 prostate
NCI-H226 lung = tested on: NCI-H226 lung
MDA-N = tested on: MDA-N
UACC-62 melanoma = tested on: UACC-62 melanoma
OVCAR-5 ovarian = tested on: OVCAR-5 ovarian
SK-MEL-28 melanoma = tested on: SK-MEL-28 melanoma
MDA-MB-231 breast = tested on: MDA-MB-231 breast
HOP-62 NSCLC = tested on: HOP-62 NSCLC
M14 melanoma = tested on: M14 melanoma
CAKI-1 renal = tested on: CAKI-1 renal
SW-620 colon = tested on: SW-620 colon
NCI-H522 lung = tested on: NCI-H522 lung
OVCAR-3 ovarian = tested on: OVCAR-3 ovarian
SN12C renal = tested on: SN12C renal
NCI-H23 lung = tested on: NCI-H23 lung
NCI-H460 lung = tested on: NCI-H460 lung
SK-MEL-5 melanoma = tested on: SK-MEL-5 melanoma
RPMI-8226 leukemia = tested on: RPMI-8226 leukemia
KM12 colon = tested on: KM12 colon
LOX IMVI melanoma = tested on: LOX IMVI melanoma
SK-OV-3 ovarian = tested on: SK-OV-3 ovarian
BT-549 breast = tested on: BT-549 breast
MCF7 breast = tested on: MCF7 breast
UO-31 renal = tested on: UO-31 renal
MDA-MB-435 = tested on: MDA-MB-435
ACHN renal = tested on: ACHN renal
NCI/ADR-RES ovarian = tested on: NCI/ADR-RES ovarian
SF-268 CNS = tested on: SF-268 CNS
U251 CNS = tested on: U251 CNS
HT29 colon = tested on: HT29 colon
HCT-116 colon = tested on: HCT-116 colon
OVCAR-8 ovarian = tested on: OVCAR-8 ovarian
T-47D breast = tested on: T-47D breast
SNB-19 CNS = tested on: SNB-19 CNS
SF-539 CNS = tested on: SF-539 CNS
HCC-2998 colon = tested on: HCC-2998 colon
SNB-75 CNS = tested on: SNB-75 CNS
EKVX NSCLC = tested on: EKVX NSCLC
COLO 205 colon = tested on: COLO 205 colon
MALME-3M melanoma = tested on: MALME-3M melanoma
MOLT-4 leukemia = tested on: MOLT-4 leukemia
HOP-92 NSCLC = tested on: HOP-92 NSCLC
SK-MEL-2 melanoma = tested on: SK-MEL-2 melanoma
HL-60(TB) leukemia = tested on: HL-60(TB) leukemia
A549 NSCLC = tested on: A549 NSCLC
786-0 renal = tested on: 786-0 renal
K-562 leukemia = tested on: K-562 leukemia
SR leukemia = tested on: SR leukemia
CCRF-CEM leukemia = tested on: CCRF-CEM leukemia
OVCAR-4 ovarian = tested on: OVCAR-4 ovarian

CC1OC(OC2C(O)CC(OC3C(O)CC(OC4CCC5(C)C(CCC6C5CCC5(C)C(C7=CC(=O)OC7)CCC65O)C4)OC3C)OC2C)CC(O)C1O (stereo not drawn)
TGI (UACC-257 melanoma): 219 nM | TGI (PC-3 prostate): 170 nM | GI50 (A498 renal): < 10 nM | TGI (A498 renal): 30.1 nM | TGI (RXF 393 renal): 78.5 nM | TGI (IGROV1 ovarian): 542 nM | TGI (SF-295 CNS): 99.8 nM | TGI (HCT-15 colon): 86.7 nM | TGI (TK-10 renal): 87.6 nM | GI50 (DU-145 prostate): < 12 nM | TGI (DU-145 prostate): < 20.4 nM | TGI (NCI-H226 lung): 174 nM | TGI (MDA-N): 138 nM | TGI (UACC-62 melanoma): 152 nM | TGI (OVCAR-5 ovarian): 148 nM | TGI (SK-MEL-28 melanoma): 423 nM | TGI (MDA-MB-231 breast): 786 nM | TGI (HOP-62 NSCLC): 41.7 nM | GI50 (M14 melanoma): 95.6 nM | TGI (M14 melanoma): 268 nM | TGI (CAKI-1 renal): 52.7 nM | TGI (SW-620 colon): 282 nM | TGI (NCI-H522 lung): 22.4 nM | TGI (OVCAR-3 ovarian): 48.5 nM | TGI (SN12C renal): 130 nM | TGI (NCI-H23 lung): 51.7 nM | GI50 (NCI-H460 lung): < 11.6 nM | TGI (NCI-H460 lung): < 18.7 nM | TGI (SK-MEL-5 melanoma): 62.4 nM | TGI (RPMI-8226 leukemia): 1470 nM | TGI (KM12 colon): 209 nM | GI50 (LOX IMVI melanoma): < 12.1 nM | TGI (LOX IMVI melanoma): 58.7 nM | TGI (SK-OV-3 ovarian): 143 nM | TGI (BT-549 breast): 61.8 nM | TGI (MCF7 breast): > 100000 nM | TGI (UO-31 renal): 151 nM | TGI (MDA-MB-435): 147 nM | TGI (ACHN renal): 106 nM | TGI (NCI/ADR-RES ovarian): 293 nM | TGI (SF-268 CNS): 61.4 nM | GI50 (U251 CNS): < 17.7 nM | TGI (U251 CNS): 46.7 nM | TGI (HT29 colon): 123 nM | GI50 (HCT-116 colon): 11 nM | TGI (HCT-116 colon): 100 nM | GI50 (OVCAR-8 ovarian): < 18.7 nM | TGI (OVCAR-8 ovarian): 70.8 nM | GI50 (T-47D breast): 56 nM | TGI (T-47D breast): 1730 nM | TGI (SNB-19 CNS): 304 nM | TGI (SF-539 CNS): 21.9 nM | TGI (HCC-2998 colon): 584 nM | TGI (SNB-75 CNS): 653 nM | TGI (EKVX NSCLC): 80.9 nM | TGI (COLO 205 colon): 142 nM | TGI (MALME-3M melanoma): 75.6 nM | GI50 (MOLT-4 leukemia): 165 nM | TGI (HOP-92 NSCLC): 190 nM | TGI (SK-MEL-2 melanoma): 447 nM | GI50 (HL-60(TB) leukemia): 45.1 nM | TGI (HL-60(TB) leukemia): 415 nM | TGI (A549 NSCLC): 29.5 nM | GI50 (786-0 renal): < 12.4 nM | TGI (786-0 renal): 21.9 nM | TGI (K-562 leukemia): 204 nM

C/C=C1\C(=O)O[C@H]2C/C(C)=C/CC/C(C)=C/CC[C@@]3(C)O[C@@H]3C[C@@H]12
TGI (UACC-257 melanoma): > 100000 nM | TGI (PC-3 prostate): > 100000 nM | TGI (A498 renal): > 100000 nM | TGI (RXF 393 renal): > 100000 nM | TGI (IGROV1 ovarian): > 100000 nM | TGI (SF-295 CNS): > 100000 nM | TGI (HCT-15 colon): > 100000 nM | TGI (TK-10 renal): > 100000 nM | TGI (DU-145 prostate): > 100000 nM | TGI (MDA-N): > 100000 nM | TGI (UACC-62 melanoma): > 100000 nM | TGI (OVCAR-5 ovarian): > 100000 nM | TGI (SK-MEL-28 melanoma): > 100000 nM | TGI (MDA-MB-231 breast): > 100000 nM | TGI (HOP-62 NSCLC): > 100000 nM | TGI (M14 melanoma): > 100000 nM | TGI (CAKI-1 renal): > 100000 nM | TGI (SW-620 colon): > 100000 nM | TGI (OVCAR-3 ovarian): > 100000 nM | TGI (SN12C renal): > 100000 nM | TGI (NCI-H460 lung): > 100000 nM | TGI (SK-MEL-5 melanoma): > 100000 nM | TGI (RPMI-8226 leukemia): > 100000 nM | TGI (KM12 colon): > 100000 nM | TGI (SK-OV-3 ovarian): > 100000 nM | TGI (BT-549 breast): > 100000 nM | TGI (MCF7 breast): > 100000 nM | TGI (UO-31 renal): > 100000 nM | TGI (SR leukemia): > 100000 nM | TGI (MDA-MB-435): > 100000 nM | TGI (ACHN renal): > 100000 nM | TGI (NCI/ADR-RES ovarian): > 100000 nM | TGI (SF-268 CNS): > 100000 nM | TGI (U251 CNS): > 100000 nM | TGI (HT29 colon): > 100000 nM | TGI (HCT-116 colon): > 100000 nM | TGI (OVCAR-8 ovarian): > 100000 nM | TGI (CCRF-CEM leukemia): > 100000 nM | TGI (T-47D breast): > 100000 nM | TGI (SNB-19 CNS): > 100000 nM | TGI (SF-539 CNS): > 100000 nM | TGI (HCC-2998 colon): > 100000 nM | TGI (SNB-75 CNS): > 100000 nM | TGI (EKVX NSCLC): > 100000 nM | TGI (COLO 205 colon): > 100000 nM | TGI (MALME-3M melanoma): > 100000 nM | TGI (MOLT-4 leukemia): > 100000 nM | TGI (SK-MEL-2 melanoma): > 100000 nM | TGI (HL-60(TB) leukemia): > 100000 nM | TGI (A549 NSCLC): > 100000 nM | TGI (786-0 renal): > 100000 nM | TGI (K-562 leukemia): > 100000 nM

O=c1c2ccc(Cl)cc2oc2c(CNc3ccc(S(=O)(=O)Nc4nccs4)cc3)cccc12
TGI (UACC-257 melanoma): > 100000 nM | TGI (PC-3 prostate): > 100000 nM | TGI (A498 renal): > 100000 nM | TGI (RXF 393 renal): > 100000 nM | TGI (IGROV1 ovarian): > 100000 nM | TGI (SF-295 CNS): > 100000 nM | TGI (HCT-15 colon): > 100000 nM | TGI (TK-10 renal): > 100000 nM | TGI (DU-145 prostate): > 100000 nM | TGI (NCI-H226 lung): > 100000 nM | TGI (MDA-N): > 100000 nM | TGI (UACC-62 melanoma): > 100000 nM | TGI (OVCAR-5 ovarian): > 100000 nM | TGI (SK-MEL-28 melanoma): > 100000 nM | TGI (MDA-MB-231 breast): > 100000 nM | TGI (HOP-62 NSCLC): > 100000 nM | TGI (M14 melanoma): > 100000 nM | TGI (CAKI-1 renal): 5510 nM | TGI (SW-620 colon): > 100000 nM | TGI (NCI-H522 lung): > 100000 nM | TGI (OVCAR-3 ovarian): > 100000 nM | TGI (SN12C renal): > 100000 nM | TGI (NCI-H23 lung): > 100000 nM | TGI (SK-MEL-5 melanoma): > 100000 nM | TGI (RPMI-8226 leukemia): > 100000 nM | TGI (KM12 colon): > 100000 nM | TGI (LOX IMVI melanoma): > 100000 nM | TGI (SK-OV-3 ovarian): > 100000 nM | TGI (BT-549 breast): > 100000 nM | TGI (MCF7 breast): > 100000 nM | TGI (UO-31 renal): > 100000 nM | TGI (SR leukemia): > 100000 nM | TGI (MDA-MB-435): > 100000 nM | TGI (ACHN renal): > 100000 nM | TGI (NCI/ADR-RES ovarian): > 100000 nM | TGI (SF-268 CNS): > 100000 nM | TGI (U251 CNS): > 100000 nM | TGI (HT29 colon): > 100000 nM | TGI (HCT-116 colon): > 100000 nM | TGI (OVCAR-8 ovarian): > 100000 nM | TGI (CCRF-CEM leukemia): > 100000 nM | TGI (T-47D breast): > 100000 nM | TGI (SNB-19 CNS): > 100000 nM | TGI (SF-539 CNS): > 100000 nM | TGI (HCC-2998 colon): > 100000 nM | TGI (EKVX NSCLC): > 100000 nM | TGI (COLO 205 colon): > 100000 nM | TGI (OVCAR-4 ovarian): > 100000 nM | TGI (MALME-3M melanoma): > 100000 nM | TGI (MOLT-4 leukemia): > 100000 nM | TGI (HOP-92 NSCLC): > 100000 nM | TGI (SK-MEL-2 melanoma): > 100000 nM | TGI (A549 NSCLC): > 100000 nM | TGI (786-0 renal): > 100000 nM | TGI (K-562 leukemia): > 100000 nM
